Four molecules from US10190166B2, “Methods for identifying dendritic cell subsets, for determining if a patient is developing a regulatory or an effector immune response, and for determining response to immunotherapy” (STALLERGENES, priority 2011, dated 2019) can be followed below.

Several values for one entry are separate records, joined by “and”; a condition that tells them apart may be missing. Equal entries are not always repeated.

Assay [1] relates to monocyte-derived DCs. Description: Western blot analysis of marker proteins in treated DCs. It counts as cell-based, human. How it is done: NuPAGE-Western blotting was carried out according to standard procedures (NuPAGE technical guide, Invitrogen). […] H00004599-[…], 1/500) from Abnova (Taipei, Taiwan), anti-CD71 (Cat. no. […] The rabbit polyclonal serum raised against GILZ was previously described (see […], et al. […] Peroxidase-conjugated goat anti-mouse and anti-rabbit secondary antibodies were both obtained from Jackson Immunoresearch Laboratories (Sufflok, England), and the chemiluminescence detection kit was from Pierce (SuperSignal West Pico Chemiluminescent Substrate, Fisher Scientific, Illkirch, France). Western blot signals were acquired with a CCD camera (Fusion FX7, Vilber-Lourmat, Marnes La Vallée, France) and band volume was quantified using the Bio-1D software (Vilber-Lourmat). β-actin or GAPDH were used as loading controls.
Background: A western blot detects proteins with antibodies after separation by electrophoresis.

Assay [2] concerns monocyte-derived DCs. Description: Cell surface phenotype of treated DCs by flow cytometry. To be noted: treatment during the differentiation step. It counts as cell-based, human. As to the method:
For immuno-fluorescence staining, cells were harvested, washed in PBS and incubated for 20 min at 4° C. with the following mAbs: FITC anti-CD14, FITC anti-CD80, PE anti-CD86, PC5 anti-CD83 (Beckman coulter), FITC anti-ILT2, PE anti-ILT4, PC5 anti-ILT3 (R&D systems) or PE-CD11c (Miltenyi Biotec, Paris, France). Cells were stained with corresponding isotype-matched control mAbs and analyzed by flow cytometry.
(In general: In flow cytometry, cells or beads pass a laser one at a time.)

Assay [3] concerns monocyte-derived DCs. Description: Anti-inflammatory effect: treated DCs stimulated with LPS 24 h (costimulatory molecules, cytokine secretion). It counts as cell-based, human.
Assay [4] has as its system monocyte-derived DCs. Briefly: Quantitative real-time PCR of marker genes in treated DCs. (In general: Quantitative PCR measures a nucleic acid by following its amplification.)
Method: Total RNA was extracted from treated DCs or PBMCs using RNeasy mini kits (Qiagen, Courtaboeuf, France) and cDNAs were obtained using TaqMan reverse transcription reagents (Applied Biosystems, Les Ulis, France) as per the manufacturer's instructions. Messenger RNA expression was evaluated by quantitative PCR on a 7900HT real-time PCR system (Applied Biosystems) with predesigned Taqman gene expression assays and reagents, according to the manufacturer's instructions. Expression of the following genes was assessed in DCs or PBMCs: GILZ (Hs00608272_m1), IDO (Hs00158032_m1), RALDH-1 (Hs00167445_m1), RALDH-2 (Hs00180254_m1), ANXA1 (Hs00167549_m1), CLIC2 (Hs01574555_m)1, FKBP5 (Hs01561001_m1), F13A (Hs00173388_m1), GPX1 (Hs00829989_gH), IMDH2 (Hs00168418_m1), OSF1 (Hs00273458_m1), TPP1 (Hs00166099_m1), C1QA (Hs00381122_m1), C1QB (Hs00608019_m1), C1QC (Hs00757779_m1), CATB (Hs00947433_m1), CATC (Hs00175188_m1), STAB1 (Hs01109068_m1), MRC1 (Hs00267207_m1), CD71 (Hs00951083_m1), FSCN1 (Hs00979631_g1), IRF4 (Hs01056533_m1), MX1 (Hs00895608_m1), NMES1 (Hs00260902_m1), TRAF1 (Hs01090170_m1). Expression of the following genes was assessed in T cells: IFNg (Hs00989291_m1), IL-4 (Hs00174122_m1), IL-10 (Hs00961622_m1) and IL-17A (Hs00174383_m1). Data were interpreted for each target gene in comparison with endogenous β-actin (Hs99999903_m1) or GAPDH (Hs03929097_g1) as controls. The relative amount of target genes in each sample was calculated in comparison with the calibrator sample using the ΔΔCt The magnitude of gene induction was calculated using the formula 2^−ΔΔCt=2^(−ΔCt for stimulated cells−ΔCt for unstimulated cells).
Assay [5] concerns monocyte-derived DCs. Briefly: Label free MS analysis of DC subtypes. The class given is cell-based, human. As to the method: Label-free MS of digested total protein lysates (solubilized in buffer A as described above), was conducted to compare proteomes of control, effector and regulatory DC subsets. Briefly, a common ultrafiltration device was used for detergent removal (CHAPS) to enable subsequent proteome analysis (Filter-aided sample preparation, FASP). 100 μg of proteins were mixed with urea-containing buffers in the filter unit (Amicon Ultra-0.5 ml, Ultracel-10 kDa Membrane, Millipore, Molsheim, France), reduced with 20 mM DTT, alkylated with 50 mM iodoacetamide, digested with Lys-C (37° C., 5 h, ratio 1/50, Sigma-Aldrich) and then with trypsin (37° C., overnight, ratio 1/50). After digestion, peptides were desalted using RPC18 Dynal magnetic beads (Invitrogen), acidified with FA and 1.5 to 2 μg of tryptic peptides were analyzed by nanoLC-MS or nanoLC-MS/MS.
In MS mode, full scan MS spectra were acquired from m/z 280 to 1500 (1 MS spectrum of 0.8 s) during 270 min. Ion intensities recorded in LC-MS data were analyzed using Progenesis LC-MS v3.1 software (Non Linear Dynamics) to provide reliable measurements of peptide (feature) abundance across samples. Internal calibration was performed by enabling the lock mass option in MS mode (minimum intensity>200 and mass±0.015 Da). […] Targeted nanoLC-MS/MS were accomplished by means of an inclusion mass list in the MS instrument method. […] Identification parameters were identical to those described for 2D-DIGE analysis. […] For accurate mass measurements, the lock mass option was enabled in MS and MS/MS mode.

Setting [6] is: tolerogenic DC models (model B).
Where [7] appears, read: moDCs treated 24 h, one value per peptide.

On to “TGFb: cytokine TGFb added during the DC differentiation step (20 ng/ml)”, for which, in the assay with monocyte-derived DCs [1] (setting [6]), the “ANXA1, CATC and GILZ proteins” value is on record as “upregulated”. Besides, in the assay with monocyte-derived DCs [2], the CD14 expression entry is “CD14^neg” and the ILT2 expression result was “ILT2^med”.
As for `C=C1/C(=C\C=C2/CCC[C@]3(C)[C@@H]([C@H](C)CCCC(C)(C)O)CC[C@@H]23)C[C@@H](O)C[C@@H]1O` [VitD3, 1,25 dihydroxy-vitamin D3], in the assay on monocyte-derived DCs [3], the “IL-6, IL-8 and TNF-α secretion after LPS stimulation” value is “left uninhibited”. Moreover, in the assay with monocyte-derived DCs [2], the CD14 expression result was “CD14^med” and the ILT3 expression entry was “ILT3^high”.
For `C[C@@H]1C[C@H]2[C@@H]3CCC4=CC(=O)C=C[C@]4(C)[C@@]3(F)[C@@H](O)C[C@]2(C)[C@@]1(O)C(=O)CO` [DEX, dexamethasone], in the assay on monocyte-derived DCs [1] (DEX-DCs compared with Ctrl-DCs), the ANXA1 protein level is listed as 1.4 fold and the FKBP5 protein induction worked out at 2.6 fold. In the assay with monocyte-derived DCs [1] (regulatory DEX-DCs), this molecule registered a C1Q protein level of 12 fold, a CATC protein level of 1.5 fold, an MRC1 protein level of 1.4 fold and an STAB1 protein level of 2.2 fold. The “C1QA, C1QB and STAB1 gene expression increase” value in the assay on monocyte-derived DCs [4] (DEX-DCs compared with Ctrl-DCs) was not above 12 fold. Moreover, the “FKBP5 and F13A gene expression increase” value in the assay on monocyte-derived DCs [4] (DEX-DCs relative to Ctrl-DCs) is reported as not above 15 fold. Besides, the “abundance of the m/z 865.70 molecular ion” value in the assay with monocyte-derived DCs [5] (moDCs treated 24 h) came to 16300. Besides, in the assay on monocyte-derived DCs [5] (setting [7]), the “Annexin A5 (ANXA5) average normalized abundance” value is 16940 and 11135; the “Annexin A6 (ANXA6) average normalized abundance” value is 3594 and 2084; the “Chloride intracellular channel protein 2 (CLIC2) average normalized abundance” value is 3857 and 4306; the “Complement C1q subcomponent subunit C (C1QC) average normalized abundance” value was 4308 and 4812 and 2406 and 2725. Also, in the assay with monocyte-derived DCs [5] (setting [7]), the “Cystatin-C (CYTC) average normalized abundance” value was 7747 and 6610 and 5925; the “Dipeptidyl peptidase 1 (CATC) average normalized abundance” value is 9396 and 14732 and 15459; the “Gelsolin precursor (GELS) average normalized abundance” value is 5372 and 6735; the “Integrin alpha-M (ITAM) average normalized abundance” value was found to be 3832. For the same molecule, in the assay on monocyte-derived DCs [5] (setting [7]), the “Interferon-induced GTP-binding protein Mx1 (MX1) average normalized abundance” value is listed as 1192; the “Neuroblast differentiation-associated protein AHNAK (AHNK) average normalized abundance” value is 2629 and 3047; the “Normal mucosa of esophagus-specific gene 1 protein (NMES1) average normalized abundance” value is 2947 and 2380; the “Peptidyl-prolyl cis-trans isomerase A (PPIA) average normalized abundance” value is 18929 and 14751. Besides, in the assay with monocyte-derived DCs [5] (setting [7]), the “Peptidyl-prolyl cis-trans isomerase FKBP5 average normalized abundance” value is 3640 and 5224 and 4046; the “Pleckstrin (PLEK) average normalized abundance” value was 5583 and 4404; the “Proteasome subunit alpha type-7 (PSA7) average normalized abundance” value is 3617 and 2212; the “Sequestosome-1 (SQSTM) average normalized abundance” value is 1340 and 2411. In addition, in the assay on monocyte-derived DCs [5] (setting [7]), the “TNF receptor-associated factor 1 (TRAF1) average normalized abundance” value was 1732 and 2223; the “Transferrin receptor protein 1 (TFR1) average normalized abundance” value was 706 and 1195; the “WD repeat-containing protein 1 (WDR1) average normalized abundance” value was 2581 and 2605. For the same molecule, the “C1QC specific peptides increase” value in the assay with monocyte-derived DCs [5] (tolerogenic DEX-DCs) was not above 5 fold.

B1: IL-10: cytokine IL-10 added during the DC differentiation step (10 ng/ml) (protein, UniProt P22301 19-178, looked up)
Interleukin-10: SPGQGTQSENSCTHFPGNLPNMLRDLRDAFSRVKTFFQMKDQLDNLLLKESLLEDFKGYLGCQALSEMIQFYLEEVMPQAENQDPDIKAHVNSLGENLKTLRLRLRRCHRFLPCENKSKAVEQVKNAFNKLQEKGIYKAMSEFDIFINYIEAYMTMKIRN
As to B1, the “F13A, MRC1 and STAB1 proteins” value in the assay on monocyte-derived DCs [1] (tolerogenic DC models (model B), DEX 24 h or differentiation) is reported as “upregulated”. Also, in the assay on monocyte-derived DCs [2], the CD14 expression result was “CD14^high” and the ILT4 expression result is listed as “ILT4high”. Besides, the CATC gene induction result in the assay on monocyte-derived DCs [4] (setting [6]) is on record as “detected”.
